{"source": "patent US20250145641A1", "about": "“FUSED BICYCLIC DERIVATIVE, PHARMACEUTICALLY ACCEPTABLE SALT, CRYSTAL FORM THEREOF AND PREPARATION METHOD THEREFOR” (JIANGSU HENGRUI PHARMACEUTICALS CO., LTD., priority 2021, published 2025)", "key": {"AKT1": {"target": "T1, AKT1 (Homo sapiens, UniProt P31749)", "T1 construct": "purchased Invitrogen P2999", "T1 sequence (P31749 whole entry)": "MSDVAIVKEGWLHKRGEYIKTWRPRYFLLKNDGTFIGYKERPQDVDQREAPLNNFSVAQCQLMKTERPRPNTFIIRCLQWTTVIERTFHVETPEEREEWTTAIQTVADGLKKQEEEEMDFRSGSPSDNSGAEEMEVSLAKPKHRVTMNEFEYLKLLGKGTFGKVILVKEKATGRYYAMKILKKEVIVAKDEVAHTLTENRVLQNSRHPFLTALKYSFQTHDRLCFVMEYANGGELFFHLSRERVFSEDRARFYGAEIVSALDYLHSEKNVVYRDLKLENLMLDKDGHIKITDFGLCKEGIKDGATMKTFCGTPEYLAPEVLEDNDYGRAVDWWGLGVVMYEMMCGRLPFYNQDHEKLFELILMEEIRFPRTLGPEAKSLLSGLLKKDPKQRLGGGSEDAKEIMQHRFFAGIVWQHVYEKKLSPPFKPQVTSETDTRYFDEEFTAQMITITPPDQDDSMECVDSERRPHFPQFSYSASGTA", "assay": "AKT1 kinase activity inhibition (KinEASE-STK S3 HTRF kit)", "assay_type": "biochemical", "experimental": "(§1) The mean inhibition of kinase and the IC50 value were measured using a NovoStar microplate reader (BMG, Germany).\n(§2) The following methods were used to determine the inhibitory effect of the compound of formula I on the kinase activity of AKT1/AKT2/AKT3 in vitro. The experimental method is briefly described as follows:\n(§3) The enzyme activity of AKT1 (Invitrogen, P2999), AKT2 (Invitrogen, PV3184), and AKT3 (Invitrogen, PV3185) was determined using a KinEASE-STK S3 kit (Cisbio, 62ST3PEC). Test compounds were each first subjected to 3-fold gradient dilution with DMSO from 500 μM to obtain a total of 11 concentrations. The 5× buffer in the kit was diluted to 1× buffer, and DTT (Sigma, 43816-10ML) and MgCl2 were added to make the buffer contain 1 mM DTT and 5 mM MgCl2. Compounds were each subjected to 20-fold dilution with 1× buffer for later use. […] The mixture was incubated at room temperature for 60 min, values of signals emitted at […] and 620 nm after excitation at 337 nm were measured by using an HTRF module of a multi-functional microplate detector (BMG Labtech, PHERAstar FS), and the ratio of the readings was multiplied by 10,000 to obtain a ratio value. Dose-response curves were drawn according to the concentration of the compounds and the ratio values by using Graphpad Prism software, and the IC50 values for the inhibitory activity of the compounds were calculated."}, "AKT2": {"target": "T2, AKT2 (Homo sapiens, UniProt P31751)", "T2 construct": "purchased Invitrogen PV3184", "T2 sequence (P31751 whole entry)": "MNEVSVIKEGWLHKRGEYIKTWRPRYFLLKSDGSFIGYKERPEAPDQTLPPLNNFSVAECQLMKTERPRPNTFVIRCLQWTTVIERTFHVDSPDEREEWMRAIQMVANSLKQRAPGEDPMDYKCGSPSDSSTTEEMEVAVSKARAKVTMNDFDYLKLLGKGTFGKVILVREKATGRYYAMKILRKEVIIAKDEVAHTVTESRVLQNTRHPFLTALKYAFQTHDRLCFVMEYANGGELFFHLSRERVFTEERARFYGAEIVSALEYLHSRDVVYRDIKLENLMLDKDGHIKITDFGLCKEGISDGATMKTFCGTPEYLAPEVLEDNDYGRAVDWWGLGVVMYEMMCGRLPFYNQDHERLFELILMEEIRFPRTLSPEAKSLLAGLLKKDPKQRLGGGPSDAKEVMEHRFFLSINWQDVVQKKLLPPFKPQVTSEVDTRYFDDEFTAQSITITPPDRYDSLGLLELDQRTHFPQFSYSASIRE", "assay": "AKT2 kinase activity inhibition (KinEASE-STK S3 HTRF kit)", "assay_type": "biochemical", "experimental": "as §1, §2, §3"}, "AKT3": {"target": "T3, AKT3 (Homo sapiens, UniProt Q9Y243)", "T3 construct": "purchased Invitrogen PV3185", "T3 sequence (Q9Y243 whole entry)": "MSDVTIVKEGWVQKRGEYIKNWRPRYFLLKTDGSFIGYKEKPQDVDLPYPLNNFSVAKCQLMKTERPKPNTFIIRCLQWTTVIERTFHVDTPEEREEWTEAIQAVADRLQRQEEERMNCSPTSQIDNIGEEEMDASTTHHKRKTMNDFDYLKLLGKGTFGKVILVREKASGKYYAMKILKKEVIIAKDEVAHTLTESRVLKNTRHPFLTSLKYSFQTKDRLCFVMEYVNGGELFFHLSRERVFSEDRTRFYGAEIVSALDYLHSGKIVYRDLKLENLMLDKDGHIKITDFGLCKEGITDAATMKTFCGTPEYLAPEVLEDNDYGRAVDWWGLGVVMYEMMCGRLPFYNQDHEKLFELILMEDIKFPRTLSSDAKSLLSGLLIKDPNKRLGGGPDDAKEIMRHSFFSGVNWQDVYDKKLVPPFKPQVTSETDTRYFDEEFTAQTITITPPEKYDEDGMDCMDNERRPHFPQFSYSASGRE", "assay": "AKT3 kinase activity inhibition (KinEASE-STK S3 HTRF kit)", "assay_type": "biochemical", "experimental": "as §1, §2, §3"}, "[1]": {"assay": "Pharmacokinetic test in nude mice, intragastric administration", "assay_type": "in vivo, Balb/c nude mice", "details": "i.g., 50 or 100 mg/kg", "experimental": "(§4) The drug concentration in the plasma of the test animals (Balb/c nude mice) at different time points after intragastric administration (i.g.) of the test compounds was determined by using an LC/MS/MS method. The pharmacokinetic performance of the compound of formula I in nude mice was studied and their pharmacokinetic profile was evaluated.\n18 Balb/c nude mice, female, divided into 2 groups and purchased from Vital River Laboratory Animal Technology Co., Ltd.\nA certain amount of compound was weighed out, and 99.8% (0.5% methylcellulose) was added into the compound, and then 0.2% Tween was added. The mixture was subjected to ultrasonic treatment to obtain a suspension, which was stirred for administration.\nThe nude mice were subjected to intragastric administration with a dose of 50 mg/kg or 100 mg/kg and an administration volume of 0.2 mL/10 g. […]\nThe content of the test compounds in the nude mice plasma after intragastric administration of different concentrations of the compound was determined: 20 μL of nude mouse plasma at each time point after administration was mixed with 50 μL of internal standard solution (camptothecin, 100 ng/mL) and 200 μL of acetonitrile, and the mixture was vortexed for 5 min and centrifuged for 10 min at 3700 rpm. […]"}, "[2]": {"assay": "Pharmacokinetic test in rats, injection (i.v.)", "assay_type": "in vivo", "details": "SD rats, 1 mg/kg", "experimental": "as §4, with “(SD rats)” for “(Balb/c nude mice)”, “injection (i.v.)” for “intragastric administration (i.g.)”, “rats” for “nude mice”\n8 SD rats, half male and half female, divided into 2 groups, purchased from Vital River Laboratory Animal Technology Co., Ltd.\nA certain amount of the compound was weighed out, and 5% of DMSO, 5% of Tween 80, and 90% of normal saline were added to obtain a colorless and clear solution.\nThe rats were subjected to administration by injection with a dose of 1 mg/kg and an administration volume of 5 mL/kg.\nThe test compound was administered by injection to the rats, and 0.2 mL of blood was collected from the orbit before administration and 5 min, 0.25 h, 0.5 h, 1.0 h, 2.0 h, 4.0 h, 8.0 h, 11.0 h, and 24.0 h after administration. […]\nThe content of the test compounds in the rat plasma after administration by injection of different concentrations of the compound was determined: 25 μL of rat plasma at each time point after administration was mixed with 50 μL of internal standard solution (camptothecin, 100 ng/mL) and 200 μL of acetonitrile, and the mixture was vortexed for 5 min and centrifuged for 10 min at 3700 rpm. […]"}}}
{"smiles": "CC(C)NC[C@@H](C(=O)N1C2CCC1CN(c1ncnc3c1C(C)(C)C(=O)N3)C2)c1ccc(Cl)cc1", "note": "[Compound of formula I]", "values": [{"measurement": "inhibitory effect on AKT1 enzyme (conclusion)", "setting": "AKT1", "result": "good inhibitory effect"}, {"measurement": "inhibitory effect on AKT2 enzyme (conclusion)", "setting": "AKT2", "result": "good inhibitory effect"}, {"measurement": "inhibitory effect on AKT3 enzyme (conclusion)", "setting": "AKT3", "result": "good inhibitory effect"}, {"measurement": "pharmacokinetic absorption (conclusion)", "setting": "[1]", "result": "good pharmacokinetic absorption"}, {"measurement": "pharmacokinetics (conclusion)", "setting": "[2]", "result": "good pharmacokinetics"}]}
